Earlier results as cited in patent US12233067B2, “Topical treatment of vitiligo by a JAK inhibitor” (Incyte Corporation, priority 2019, dated 2025).

Assays:
[1] = tested on: patient with both alopecia areata and vitiligo; conditions: oral 20 mg BID for 20 weeks
[2] = tested on: patient with widespread and progressive vitiligo; conditions: oral 5 mg QD; after 5 months of treatment

Row | SMILES | clinical outcome [1] | clinical outcome [2]
1 | N#CC[C@H](C1CCCC1)n1cc(-c2ncnc3[nH]ccc23)cn1 [ruxolitinib, (R)-3-(4-(7H-pyrrolo[2,3-d]pyrimidin-4-yl)-1H-pyrazol-1-yl)-3-cyclopentylpropanenitrile] | hair regrowth as well as repigmentation of areas affected with vitiligo | 
2 | C[C@@H]1CCN(C(=O)CC#N)C[C@@H]1N(C)c1ncnc2[nH]ccc12 [tofacitinib] |  | near complete repigmentation
